Here are results for six compounds from ChEMBL document CHEMBL1212808, “The p110 delta structure: mechanisms for selectivity and potency of new PI(3)K inhibitors” (Nat Chem Biol, 2010).

Test [1] deals with Phosphatidylinositol 4,5-bisphosphate 3-kinase catalytic subunit beta isoform (Homo sapiens, UniProt P42338). Description: Inhibition of p110beta.
The target in test [2] is Phosphatidylinositol 4,5-bisphosphate 3-kinase catalytic subunit alpha isoform (Homo sapiens, UniProt P42336). Description: Inhibition of p110alpha.
Phosphatidylinositol 4,5-bisphosphate 3-kinase catalytic subunit alpha isoform, sequence (P42336 whole entry, canonical isoform): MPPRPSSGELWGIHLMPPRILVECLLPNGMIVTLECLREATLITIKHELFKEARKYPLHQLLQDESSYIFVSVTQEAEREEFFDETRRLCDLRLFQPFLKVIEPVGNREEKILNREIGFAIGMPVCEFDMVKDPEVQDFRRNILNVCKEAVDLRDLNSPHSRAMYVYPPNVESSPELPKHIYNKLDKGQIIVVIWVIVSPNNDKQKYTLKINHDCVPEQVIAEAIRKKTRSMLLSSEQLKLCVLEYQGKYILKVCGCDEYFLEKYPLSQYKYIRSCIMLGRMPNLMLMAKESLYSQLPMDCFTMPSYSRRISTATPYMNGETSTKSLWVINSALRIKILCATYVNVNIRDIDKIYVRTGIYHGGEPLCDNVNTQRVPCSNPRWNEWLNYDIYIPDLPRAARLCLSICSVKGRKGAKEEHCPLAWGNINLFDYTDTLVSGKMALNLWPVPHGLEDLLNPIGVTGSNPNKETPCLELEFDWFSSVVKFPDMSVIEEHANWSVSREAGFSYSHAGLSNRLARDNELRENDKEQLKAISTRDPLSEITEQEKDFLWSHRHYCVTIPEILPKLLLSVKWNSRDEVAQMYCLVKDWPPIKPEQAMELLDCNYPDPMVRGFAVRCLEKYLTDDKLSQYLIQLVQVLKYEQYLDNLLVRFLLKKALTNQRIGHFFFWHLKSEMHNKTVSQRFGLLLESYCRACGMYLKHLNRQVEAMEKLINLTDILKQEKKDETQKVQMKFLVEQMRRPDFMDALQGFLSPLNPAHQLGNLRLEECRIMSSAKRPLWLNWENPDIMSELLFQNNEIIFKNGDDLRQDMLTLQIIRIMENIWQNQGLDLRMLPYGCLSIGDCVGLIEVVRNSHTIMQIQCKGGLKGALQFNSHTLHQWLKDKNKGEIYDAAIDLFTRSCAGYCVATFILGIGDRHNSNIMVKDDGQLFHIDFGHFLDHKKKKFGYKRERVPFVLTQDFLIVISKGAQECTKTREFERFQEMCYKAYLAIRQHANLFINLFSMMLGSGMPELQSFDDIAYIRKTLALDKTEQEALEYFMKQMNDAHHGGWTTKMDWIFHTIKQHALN
The target in test [3] is Phosphatidylinositol 4,5-bisphosphate 3-kinase catalytic subunit gamma isoform (Homo sapiens, UniProt P48736). As to the kind of experiment: Inhibition of p110gamma.
Phosphatidylinositol 4,5-bisphosphate 3-kinase catalytic subunit gamma isoform, sequence (P48736 whole entry, canonical isoform): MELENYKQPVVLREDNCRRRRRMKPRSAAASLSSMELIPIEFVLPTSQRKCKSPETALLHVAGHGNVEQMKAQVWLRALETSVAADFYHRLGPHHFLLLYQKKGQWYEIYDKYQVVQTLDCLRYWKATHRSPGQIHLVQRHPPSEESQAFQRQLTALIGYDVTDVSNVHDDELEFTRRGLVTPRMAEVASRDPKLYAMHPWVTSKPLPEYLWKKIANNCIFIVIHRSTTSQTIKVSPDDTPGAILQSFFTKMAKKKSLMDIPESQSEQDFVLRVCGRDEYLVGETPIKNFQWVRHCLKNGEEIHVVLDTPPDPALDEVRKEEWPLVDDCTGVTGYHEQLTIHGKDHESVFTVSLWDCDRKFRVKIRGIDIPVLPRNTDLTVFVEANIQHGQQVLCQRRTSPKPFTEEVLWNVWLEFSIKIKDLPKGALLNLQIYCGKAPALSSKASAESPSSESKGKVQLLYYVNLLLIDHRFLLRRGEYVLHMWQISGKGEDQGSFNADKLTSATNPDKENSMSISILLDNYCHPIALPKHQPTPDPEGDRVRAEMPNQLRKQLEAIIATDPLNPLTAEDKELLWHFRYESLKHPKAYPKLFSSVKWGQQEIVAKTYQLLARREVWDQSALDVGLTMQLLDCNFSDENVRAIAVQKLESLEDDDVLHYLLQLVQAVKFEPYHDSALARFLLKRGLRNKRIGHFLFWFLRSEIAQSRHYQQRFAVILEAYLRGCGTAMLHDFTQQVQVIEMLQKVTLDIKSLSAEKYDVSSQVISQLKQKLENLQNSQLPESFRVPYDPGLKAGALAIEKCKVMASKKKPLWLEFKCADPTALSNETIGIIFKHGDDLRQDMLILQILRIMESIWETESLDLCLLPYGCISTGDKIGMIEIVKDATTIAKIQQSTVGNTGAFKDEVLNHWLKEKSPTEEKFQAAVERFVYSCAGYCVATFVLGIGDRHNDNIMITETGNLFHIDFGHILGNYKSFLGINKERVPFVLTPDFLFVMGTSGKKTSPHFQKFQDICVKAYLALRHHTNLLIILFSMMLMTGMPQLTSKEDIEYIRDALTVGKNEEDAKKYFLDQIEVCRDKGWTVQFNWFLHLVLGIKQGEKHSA

Phosphatidylinositol 4,5-bisphosphate 3-kinase catalytic subunit beta isoform, sequence (P42338 whole entry, canonical isoform): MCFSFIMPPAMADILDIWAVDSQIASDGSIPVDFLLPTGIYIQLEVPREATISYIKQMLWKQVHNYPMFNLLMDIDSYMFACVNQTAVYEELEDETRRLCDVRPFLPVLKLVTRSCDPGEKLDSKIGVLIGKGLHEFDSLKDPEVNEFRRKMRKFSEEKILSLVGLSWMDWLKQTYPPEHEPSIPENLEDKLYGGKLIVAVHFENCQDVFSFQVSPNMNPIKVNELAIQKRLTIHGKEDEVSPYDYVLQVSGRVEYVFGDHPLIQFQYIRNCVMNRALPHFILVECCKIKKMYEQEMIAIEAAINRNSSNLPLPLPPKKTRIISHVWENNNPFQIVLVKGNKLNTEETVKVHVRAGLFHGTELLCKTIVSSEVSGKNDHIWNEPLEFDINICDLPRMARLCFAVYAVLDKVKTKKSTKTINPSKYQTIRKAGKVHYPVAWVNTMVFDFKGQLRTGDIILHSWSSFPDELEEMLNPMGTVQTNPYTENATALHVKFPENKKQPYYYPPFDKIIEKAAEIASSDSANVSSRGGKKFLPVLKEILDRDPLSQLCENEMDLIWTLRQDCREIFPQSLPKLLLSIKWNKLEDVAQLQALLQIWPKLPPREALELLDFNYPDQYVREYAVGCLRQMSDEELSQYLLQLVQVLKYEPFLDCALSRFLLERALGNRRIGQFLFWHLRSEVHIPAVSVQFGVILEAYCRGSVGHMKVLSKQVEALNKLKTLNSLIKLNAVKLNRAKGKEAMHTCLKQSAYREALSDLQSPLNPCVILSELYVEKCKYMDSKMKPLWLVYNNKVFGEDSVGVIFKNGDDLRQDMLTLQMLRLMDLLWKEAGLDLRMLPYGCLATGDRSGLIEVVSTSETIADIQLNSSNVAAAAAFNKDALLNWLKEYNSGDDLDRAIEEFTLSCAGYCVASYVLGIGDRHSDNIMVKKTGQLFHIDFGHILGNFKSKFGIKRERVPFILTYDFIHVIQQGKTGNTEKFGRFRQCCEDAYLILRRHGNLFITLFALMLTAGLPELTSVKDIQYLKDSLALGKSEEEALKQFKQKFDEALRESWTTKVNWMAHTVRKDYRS

A word on the IC50: it is the concentration needed to halve the response being measured. Read a low IC50 as higher potency. `CC(=O)Nc1nc2ccc(-c3nn(Cc4cc5ccccc5nc4N4CCN(C)CC4)c4ncnc(N)c34)cc2s1`: the IC50 in test [1] worked out at 0.023 µM; in test [2] it was 0.788 µM; in test [3], 0.185 µM.
Taken in the same sequence, the figures for `CN1CCN(c2nc3ccccc3cc2Cn2nc(-c3ccc4nc(N)sc4c3)c3c(N)ncnc32)CC1` were 0.009 µM, 0.137 µM and 0.004 µM.
Taken in the same sequence, the figures for `CC(C)n1nc(C#Cc2cccnc2)c2c(N)ncnc21` were 0.664 µM, 0.053 µM and 0.113 µM.
Taken in the same sequence, the figures for `CC(C)n1nc(C#Cc2cccc(O)c2)c2c(N)ncnc21` were 0.316 µM, 0.034 µM and 0.069 µM.
Regarding `COc1cc(Nc2nc3ccccc3nc2NS(=O)(=O)c2ccc(F)cc2)cc(OC)c1`, the IC50 in test [1] is 10 µM; in test [2], 0.4 µM; in test [3], 10 µM.
As to `COc1ccccc1-n1c(SCC(=O)Nc2ccc3nccnc3c2)nc2c(c1=O)CCCC2`, the IC50 in test [1] turned out to be 4.23 µM; in test [2] it was 3.44 µM; in test [3] it was 20 µM.
